Measurements as given in patent US6277859A, “Morphinan derivative and its pharmaceutical applications” (priority 1992, dated 2001).
Counter-ions that a name gives are not always drawn.

Legend:
[1] = biological target: T1, μ receptor (Mus musculus, UniProt P42866); assay: Ke with naloxone in isolated mouse vas deference preparation; type: cell-based, mouse (male ddy)
T1 construct: The isolated vas deference was filled with Krebes-Henseleit solution; from tissue; host or cells: isolated vas deferens of male ddy mouse
Protocol: (§1) A male ddy mouse was used in this test. The isolated vas deference was filled with Krebes-Henseleit solution (NaCl 118 mM; KCl 4.7 mM; CaCl2 2.5 mM; KH2 PO4 1.1 mM; NaHCO3 25 mM; and glucose 10 mM) warmed to 37° C. and suspended in a Magnus tube ventilated with 5% carbon dioxide and 95% oxygen. Electrical stimulus was performed at 0.1 Hz for 5.0 ms by means of ring-shaped platinum electrodes located above and below. Tissue contractions were recorded on a polygraph using an isometric transducer.
(§2) Then after adequately washing with nutrient solution and the contraction reaction stabilized, naloxone, a μ […], NTI, a δ […], or norBNI, a κ […], were added and the test compound was again cumulatively added after roughly 20 minutes. The Ke value was calculated using the following calculation formula from the difference in the efficacies of both agonists.
(§3) Ke=[Conc. of added agonist]/(IC50 ratio-1)
(§4) IC50 ratio IC50 in the presence of agonist/IC50 in the absence of agonist

[2] = biological target: T2, δ receptor (Mus musculus, UniProt P32300); assay: Ke with NTI in isolated mouse vas deference preparation; type: cell-based, mouse (male ddy); conditions: NTI (δ)
T2 construct: The isolated vas deference was filled with Krebes-Henseleit solution; from tissue; host or cells: isolated vas deferens of male ddy mouse
Protocol: as §1, §2, §3, §4

[3] = biological target: T3, κ receptor (Mus musculus, UniProt P33534); assay: Ke with norBNI in isolated mouse vas deference preparation; type: cell-based, mouse (male ddy); conditions: for Ke norBNI: norBNI (κ)
T3 construct: The isolated vas deference was filled with Krebes-Henseleit solution; from tissue; host or cells: isolated vas deferens of male ddy mouse
Protocol: as §1, §2, §3, §4

[4] = test system: Wistar rats; assay: Evaluation of diuretic action; type: in vivo, rat (male Wistar); conditions: sc, rat, s.c., urine output for 5 h after 20 ml/kg saline oral; for ED500: read-out: ED500, diuretic action (dose giving urine output of 500, non-dosed group = 100); for ED200: read-out: ED200, diuretic action (dose giving urine output of 200, non-dosed group = 100)
Protocol: Evaluation of Diuretic Action
7-8 week old male Wistar rats were used in this test after prohibiting from drinking water for 1 hour before testing. After discharging any urine accumulated in the bladder by gently stimulating the lower abdomens of the animals, the drug was administered subcutaneously. After 30 minutes, the animals were then forcibly given 20 ml/kg of physiological saline orally. The animals were then placed in metabolic cages immediately after administration of the drug (2 animals/cage) and urine output for 5 hours after loading with physiological saline was measured. Drug efficacy was expressed in the form of those doses resulting in urine outputs of 200 and 500, respectively, when the urine output of a non-dosed group was taken to be 100. Those doses were expressed as the ED200 and ED500 values, respectively.

T1 sequence (P42866 whole entry): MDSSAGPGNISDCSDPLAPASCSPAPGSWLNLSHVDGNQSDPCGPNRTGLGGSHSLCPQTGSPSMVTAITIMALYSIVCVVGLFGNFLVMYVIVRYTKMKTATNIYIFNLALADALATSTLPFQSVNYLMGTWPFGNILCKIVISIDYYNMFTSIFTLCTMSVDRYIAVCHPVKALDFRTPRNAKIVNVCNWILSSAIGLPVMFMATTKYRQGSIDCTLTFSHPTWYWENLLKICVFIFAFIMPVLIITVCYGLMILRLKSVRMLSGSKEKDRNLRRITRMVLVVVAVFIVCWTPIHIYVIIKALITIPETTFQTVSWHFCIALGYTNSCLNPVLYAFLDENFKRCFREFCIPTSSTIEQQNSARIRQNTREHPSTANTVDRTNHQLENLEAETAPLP
T2 sequence (P32300 whole entry): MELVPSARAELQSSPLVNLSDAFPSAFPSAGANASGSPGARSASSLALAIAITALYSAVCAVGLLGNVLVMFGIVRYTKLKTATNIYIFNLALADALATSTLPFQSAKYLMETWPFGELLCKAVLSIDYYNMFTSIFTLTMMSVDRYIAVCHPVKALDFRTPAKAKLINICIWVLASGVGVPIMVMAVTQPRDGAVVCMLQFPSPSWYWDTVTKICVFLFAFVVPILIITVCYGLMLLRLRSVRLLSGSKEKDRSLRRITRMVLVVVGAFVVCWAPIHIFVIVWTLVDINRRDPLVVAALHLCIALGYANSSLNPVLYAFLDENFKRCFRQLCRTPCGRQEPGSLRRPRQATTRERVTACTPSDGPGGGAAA
T3 sequence (P33534 whole entry): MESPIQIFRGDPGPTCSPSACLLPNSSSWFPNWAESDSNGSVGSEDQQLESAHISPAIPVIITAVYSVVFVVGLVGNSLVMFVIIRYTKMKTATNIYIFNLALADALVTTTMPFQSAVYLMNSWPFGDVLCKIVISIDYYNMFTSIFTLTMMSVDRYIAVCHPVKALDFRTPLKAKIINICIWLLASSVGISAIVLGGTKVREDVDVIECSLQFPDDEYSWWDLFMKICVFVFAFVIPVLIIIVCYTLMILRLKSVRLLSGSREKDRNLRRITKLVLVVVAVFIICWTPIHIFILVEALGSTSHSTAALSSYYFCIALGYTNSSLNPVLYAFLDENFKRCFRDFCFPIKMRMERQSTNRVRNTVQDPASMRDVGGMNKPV

| SMILES | Ke Naloxone [1] [nM] | Ke NTI [2] [nM] | Ke norBNI [3] [nM] | ED500 [4] [mg/kg] | ED200 [4] [mg/kg] | selective agonist for κ receptors (in words) [3] |
| --- | --- | --- | --- | --- | --- | --- |
| CN(C(=O)/C=C/c1cccc([N+](=O)[O-])c1)[C@@H]1CC[C@@]2(O)[C@H]3Cc4ccc(O)c5c4[C@@]2(CCN3CC2CC2)[C@H]1O5 [Compound 104, 17-cyclopropylmethyl-3,14β-dihydroxy-4,5α-epoxy-6β-(N-methyl-3-nitrocinnamamido)morphinan.tartrate] | 185 | 89 | 1.40 | – | – | – |
| CN(C(=O)/C=C/c1ccsc1)[C@H]1CC[C@@]2(O)[C@H]3Cc4ccc(O)c5c4[C@@]2(CCN3CC2CC2)[C@H]1O5 [Compound 91, 17-cyclopropylmethyl-3,14β-dihydroxy-4,5α-epoxy-6α-[N-methyl-trans-3-(3-thienyl)acrylamido]morphinan.tartrate] | – | 450 | 0.699 | 0.96 | 0.0094 | selective agonists for κ receptors |
| CN(C(=O)Cc1ccc(F)c(F)c1)[C@H]1CC[C@@]2(O)[C@H]3Cc4ccc(O)c5c4[C@@]2(CCN3CC2CC2)[C@H]1O5 [Compound 105, 17-cyclopropylmethyl-3,14β-dihydroxy-4,5α-epoxy-6α-(N-methyl-3,4-difluorophenylacetamido)morphinan.hydrochloride] | – | – | – | 3.3 | 0.019 | – |
| CCCCOC(=O)N(C)[C@@H]1CC[C@@]2(O)[C@H]3Cc4ccc(O)c5c4[C@@]2(CCN3CC2CC2)[C@H]1O5 [Compound 59, 17-cyclopropylmethyl-3,14β-dihydroxy-4,5α-epoxy-6β-(N-methylbutyroxycarbamido)morphinan.tartrate] | 21.3 | 47.3 | 0.151 | – | – | selective agonists for κ receptors |
| CN(C(=O)OCc1ccccc1)[C@@H]1CC[C@@]2(O)[C@H]3Cc4ccc(O)c5c4[C@@]2(CCN3CC2CC2)[C@H]1O5 [Compound 56, 17-cyclopropylmethyl-3,14β-dihydroxy-4,5α-epoxy-60-(N-methylbenzyloxycarbamido)morphinan.hydrochloride] | – | – | – | – | 0.0028 | – |
| CN(C(=O)CC(=O)c1ccccc1)[C@@H]1CC[C@@]2(O)[C@H]3Cc4ccc(O)c5c4[C@@]2(CCN3CC2CC2)[C@H]1O5 [Compound 103, 17-cyclopropylmethyl-3,14β-dihydroxy-4,5α-epoxy-6β-(N-methylbenzoylacetamido)morphinan.tartrate] | – | – | 0.657 | – | – | selective agonists for κ receptors |
| CN(C(=O)/C=C/c1ccc(Cl)c(Cl)c1)[C@H]1CC[C@@]2(O)[C@H]3Cc4ccc(O)c5c4[C@@]2(CCN3CC2CC2)[C@H]1O5 [Compound 86, 17-cyclopropylmethyl-3,14β-dihydroxy-4,5α-epoxy-6α-(N-methyl-3,4-dichlorocinnamamido) morphinan.hydrochloride] | – | – | – | – | 0.0057 | – |
| CN(C(=O)Cc1csc2ccccc12)[C@H]1CC[C@@]2(O)[C@H]3Cc4ccc(O)c5c4[C@@]2(CCN3CC2CC2)[C@H]1O5 [Compound 107, 17-cyclopropylmethyl-3,14β-dihydroxy-4,5α-epoxy-6α-(N-methyl-3-benzo[b]thienylacetamido)morphinan.hydrochloride] | – | – | – | 0.2 | 0.0061 | – |
| CN(C(=O)CCc1ccccc1)[C@@H]1CC[C@@]2(O)[C@H]3Cc4ccc(O)c5c4[C@@]2(CCN3CC2CC2)[C@H]1O5 [Compound 57, 17-cyclopropylmethyl-3,14β-dihydroxy-4,5α-epoxy-60-(N-methyl-3-phenylpropionamido) morphinan.hydrochloride] | – | 747 | 0.0124 | – | – | selective agonists for κ receptors |
| CCCCCC(=O)N(C)[C@@H]1CC[C@@]2(O)[C@H]3Cc4ccc(O)c5c4[C@@]2(CCN3CC2CC2)[C@H]1O5 [Compound 62, 17-cyclopropylmethyl-3,14β-dihydroxy-4,5α-epoxy-6β-(N-methylhexanamido)morphinan.tartrate] | – | 90.2 | 0.203 | – | – | selective agonists for κ receptors |
| CC(=O)Oc1ccc2c3c1O[C@H]1[C@H](N(C)C(=O)/C=C/c4cccc(C(F)(F)F)c4)CC[C@@]4(O)[C@@H](C2)N(CC2CC2)CC[C@]314 [Compound 141, 17-cyclopropylmethyl-3-acetoxy-14β-hydroxy-4,5α-epoxy-6β-(N-methyl-3-trifluoromethylcinnamamido)morphinan.tartrate] | 142 | 184 | 1.39 | – | – | selective agonists for κ receptors |
| CCCCCCC(=O)N(C)[C@H]1CC[C@@]2(O)[C@H]3Cc4ccc(O)c5c4[C@@]2(CCN3CC2CC2)[C@H]1O5 [Compound 46, 17-cyclopropylmethyl-3,14β-dihydroxy-4,5α-epoxy-6α-(N-methylheptanamido)morphinan.hydrochloride] | – | – | 0.440 | – | – | selective agonists for κ receptors |
| CN(C(=O)Cc1ccc(Br)cc1)[C@H]1CC[C@@]2(O)[C@H]3Cc4ccc(O)c5c4[C@@]2(CCN3CC2CC2)[C@H]1O5 [Compound 28, 17-cyclopropylmethyl-3,14β-dihydroxy-4,5α-epoxy-6α-(N-methyl-4-bromophenylacetamido)morphinan.hydrobromide] | – | – | – | – | 0.02 | – |
| CN(C(=O)Cc1ccc(Cl)c(Cl)c1)[C@@H]1CC[C@@]2(O)[C@H]3Cc4ccc(O)c5c4[C@@]2(CCN3CC2CC2)[C@H]1O5 [Compound 53, 17-cyclopropylmethyl-4,5α-epoxy-3,14β-dihydroxy-6β-(N-methyl-3,4-dichlorophenylacetoamido)morphinan.hydrochloride] | – | 1676 | 0.21 | – | – | – |
| O=C(Cc1ccc(Cl)c(Cl)c1)N[C@H]1CC[C@@]2(O)[C@H]3Cc4ccc(O)c5c4[C@@]2(CCN3CC2CC2)[C@H]1O5 [Compound 52, 17-cyclopropylmethyl-4,5α-epoxy-3,14β-dihydroxy-6α-(3,4-dichlorophenylacetoamido) morphinan.hydrochloride] | – | – | – | – | – | selective agonists for κ receptors |
| CCC/C=C/C(=O)N(C)[C@H]1CC[C@@]2(O)[C@H]3Cc4ccc(O)c5c4[C@@]2(CCN3CC2CC2)[C@H]1O5 [Compound 95, 17-cyclopropylmethyl-3,14β-dihydroxy-4,5α-epoxy-6α-(N-methyl-trans-2-hexenamido)morphinan.tartrate] | – | – | – | – | 0.0028 | – |
| CN(C(=O)Cc1cccc(C(F)(F)F)c1)[C@H]1CC[C@@]2(O)[C@H]3Cc4ccc(O)c5c4[C@@]2(CCN3CC2CC2)[C@H]1O5 [Compound 108, 17-cyclopropylmethyl-3,14β-dihydroxy-4,5α-epoxy-6α-(N-methyl-3-trifluoromethylphenylacetamido) morphinan.hydrochloride] | – | – | – | – | 0.021 | – |
| CN(C(=O)/C=C/C1CCCCC1)[C@H]1CC[C@@]2(O)[C@H]3Cc4ccc(O)c5c4[C@@]2(CCN3CC2CC2)[C@H]1O5 [Compound 50, 17-cyclopropylmethyl-4,5α-epoxy-3,14β-dihydroxy-6α-(N-methyl-trans-3-cyclohexylacrylamido)morphinan.hydrochloride] | – | – | – | – | 0.0021 | – |
